# Reference: PubChem BioAssay (NCI)
#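 Interpolation was linear, between the two tested concentrations surrounding the appropriate level; five concentrations were tested over 48 hours in 96-well plates. GI50: concentration for 50% inhibition of growth. TGI denotes the concentration required for complete inhibition of growth.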
# What was measured:
# Assay in all cases: NCI-60 cell line screen, 48 h
# [1] = test system: MDA-MB-231 breast
# [2] = test system: NCI-H226 lung
# [3] = test system: OVCAR-5 ovarian
# [4] = test system: SK-MEL-5 melanoma
# [5] = test system: OVCAR-3 ovarian
# [6] = test system: MDA-MB-435
# [7] = test system: NCI-H460 lung
# [8] = test system: OVCAR-8 ovarian
# [9] = test system: MALME-3M melanoma
# [10] = test system: SK-MEL-28 melanoma
# [11] = test system: IGROV1 ovarian
# [12] = test system: COLO 205 colon
# [13] = test system: ACHN renal
# [14] = test system: UACC-257 melanoma
# [15] = test system: TK-10 renal
# [16] = test system: MCF7 breast
# [17] = test system: EKVX NSCLC
# [18] = test system: DU-145 prostate
# [19] = test system: HT29 colon
# [20] = test system: BT-549 breast
# [21] = test system: HCC-2998 colon
# [22] = test system: SF-539 CNS
# [23] = test system: U251 CNS
# [24] = test system: UACC-62 melanoma
# [25] = test system: SK-OV-3 ovarian
# [26] = test system: A498 renal
# [27] = test system: HOP-62 NSCLC
# [28] = test system: HS 578T breast
# [29] = test system: HL-60(TB) leukemia
# [30] = test system: SN12C renal
# [31] = test system: NCI/ADR-RES ovarian
# [32] = test system: HCT-15 colon
# [33] = test system: A549 NSCLC
# [34] = test system: SW-620 colon
# [35] = test system: SF-295 CNS
# [36] = test system: MOLT-4 leukemia
# [37] = test system: SNB-19 CNS
# [38] = test system: CAKI-1 renal
# [39] = test system: K-562 leukemia
# [40] = test system: M14 melanoma
# [41] = test system: NCI-H23 lung
# [42] = test system: KM12 colon
# [43] = test system: 786-0 renal
# [44] = test system: PC-3 prostate
# [45] = test system: CCRF-CEM leukemia
# [46] = test system: NCI-H522 lung
# [47] = test system: HCT-116 colon
# [48] = test system: RXF 393 renal
# [49] = test system: SR leukemia
# [50] = test system: OVCAR-4 ovarian
# [51] = test system: SF-268 CNS
# [52] = test system: LOX IMVI melanoma
# [53] = test system: HOP-92 NSCLC
# [54] = test system: T-47D breast
# [55] = test system: UO-31 renal
# [56] = test system: SK-MEL-2 melanoma
# [57] = test system: RPMI-8226 leukemia
compound,measurement,setting,value
COc1cc(/C=C2\CC3C4CC=C5C[C@@H](O)CC[C@]5(C)C4CC[C@]3(C)C2=O)ccc1OCCCn1ccnc1 (stereo partly specified),GI50,[1],27.1 µM
same,TGI,[1],65.6 µM
same,GI50,[2],19.6 µM
same,TGI,[2],39.2 µM
same,GI50,[3],20.2 µM
same,TGI,[3],41.9 µM
same,GI50,[4],14.1 µM
same,TGI,[4],27 µM
same,GI50,[5],19.1 µM
same,TGI,[5],39.4 µM
same,GI50,[6],16.8 µM
same,TGI,[6],34 µM
same,GI50,[7],18.6 µM
same,TGI,[7],44 µM
same,GI50,[8],17.1 µM
same,TGI,[8],47.5 µM
same,GI50,[9],17.3 µM
same,TGI,[9],36.9 µM
same,GI50,[10],28.9 µM
same,TGI,[10],> 100 µM
same,GI50,[11],23.7 µM
same,TGI,[11],52.8 µM
same,GI50,[12],26.4 µM
same,TGI,[12],> 100 µM
same,GI50,[13],11.2 µM
same,TGI,[13],24.7 µM
same,GI50,[14],15.8 µM
same,TGI,[14],35.3 µM
same,GI50,[15],20.4 µM
same,TGI,[15],35.9 µM
same,GI50,[16],18.8 µM
same,TGI,[16],37.7 µM
same,GI50,[17],17 µM
same,TGI,[17],47.4 µM
same,GI50,[18],15.4 µM
same,TGI,[18],29.6 µM
same,GI50,[19],13.7 µM
same,TGI,[19],> 100 µM
same,GI50,[20],16.5 µM
same,TGI,[20],44.3 µM
same,GI50,[21],14.8 µM
same,TGI,[21],28.3 µM
same,GI50,[22],15.7 µM
same,TGI,[22],31.1 µM
same,GI50,[23],15 µM
same,TGI,[23],32.8 µM
same,GI50,[24],17.3 µM
same,TGI,[24],35.3 µM
same,GI50,[25],29.1 µM
same,TGI,[25],> 100 µM
same,GI50,[26],25.5 µM
same,TGI,[26],44.2 µM
same,GI50,[27],19.4 µM
same,TGI,[27],34.1 µM
same,GI50,[28],26.9 µM
same,TGI,[28],53.7 µM
same,GI50,[29],19.4 µM
same,TGI,[29],37.3 µM
same,GI50,[30],17 µM
same,TGI,[30],33.7 µM
same,GI50,[31],15.4 µM
same,TGI,[31],31.7 µM
same,GI50,[32],10.2 µM
same,TGI,[32],31.3 µM
same,GI50,[33],17.1 µM
same,TGI,[33],56.4 µM
same,GI50,[34],24.4 µM
same,TGI,[34],52.9 µM
same,GI50,[35],13.4 µM
same,TGI,[35],27.5 µM
same,GI50,[36],20.8 µM
same,TGI,[36],41.8 µM
same,GI50,[37],38.8 µM
same,TGI,[37],> 100 µM
same,GI50,[38],19.1 µM
same,TGI,[38],39.8 µM
same,GI50,[39],17.6 µM
same,TGI,[39],39.2 µM
same,GI50,[40],15.2 µM
same,TGI,[40],33.3 µM
same,GI50,[41],18.1 µM
same,TGI,[41],32.9 µM
same,GI50,[42],25.2 µM
same,TGI,[42],54.8 µM
same,GI50,[43],17.3 µM
same,TGI,[43],31.3 µM
same,GI50,[44],> 100 µM
same,TGI,[44],> 100 µM
same,GI50,[45],18 µM
same,TGI,[45],34.8 µM
same,GI50,[46],17.1 µM
same,TGI,[46],37.3 µM
same,GI50,[47],16.1 µM
same,TGI,[47],33.4 µM
same,GI50,[48],12.6 µM
same,TGI,[48],34.8 µM
same,GI50,[49],24.1 µM
same,TGI,[49],41.9 µM
same,GI50,[50],41.5 µM
same,TGI,[50],> 100 µM
same,GI50,[51],18.2 µM
same,TGI,[51],40.2 µM
same,GI50,[52],0.509 µM
same,TGI,[52],16.4 µM
same,GI50,[53],14.2 µM
same,TGI,[53],32.6 µM
same,GI50,[54],29.3 µM
same,TGI,[54],> 100 µM
same,GI50,[55],19.6 µM
same,TGI,[55],55.2 µM
CSc1nsc(S/C=C\C(=O)c2ccc(C)cc2)n1,GI50,[1],11.3 µM
same,TGI,[1],27.5 µM
same,GI50,[2],20.7 µM
same,TGI,[2],55.5 µM
same,GI50,[3],22.7 µM
same,TGI,[3],49.6 µM
same,GI50,[4],0.706 µM
same,TGI,[4],6.88 µM
same,GI50,[5],17 µM
same,TGI,[5],34.5 µM
same,GI50,[6],19.2 µM
same,TGI,[6],45.6 µM
same,GI50,[7],26.7 µM
same,TGI,[7],> 73.5 µM
same,GI50,[8],22.5 µM
same,TGI,[8],57.5 µM
same,GI50,[9],19 µM
same,TGI,[9],38.6 µM
same,GI50,[10],13.4 µM
same,TGI,[10],> 45.1 µM
same,GI50,[11],25.5 µM
same,TGI,[11],> 100 µM
same,GI50,[12],25.5 µM
same,TGI,[12],> 63.7 µM
same,GI50,[13],17.6 µM
same,TGI,[13],31.8 µM
same,GI50,[14],22.6 µM
same,TGI,[14],49.2 µM
same,GI50,[15],18.6 µM
same,TGI,[15],33.7 µM
same,TGI,[16],35.4 µM
same,GI50,[17],22.5 µM
same,TGI,[17],49.7 µM
same,GI50,[18],20.5 µM
same,TGI,[18],> 49.5 µM
same,GI50,[19],19 µM
same,TGI,[19],> 57.1 µM
same,GI50,[20],17.5 µM
same,TGI,[20],40.3 µM
same,GI50,[21],17.8 µM
same,TGI,[21],33.8 µM
same,GI50,[22],19 µM
same,TGI,[22],36.2 µM
same,GI50,[23],17.2 µM
same,TGI,[23],41.5 µM
same,GI50,[24],18.5 µM
same,TGI,[24],38.2 µM
same,GI50,[25],60.7 µM
same,TGI,[25],> 100 µM
same,GI50,[56],35.7 µM
same,TGI,[56],> 100 µM
same,GI50,[26],0.0153 µM
same,TGI,[26],0.169 µM
same,GI50,[57],43 µM
same,TGI,[57],> 100 µM
same,GI50,[27],21 µM
same,TGI,[27],43.8 µM
same,GI50,[28],0.187 µM
same,TGI,[28],6.33 µM
same,GI50,[29],11.6 µM
same,TGI,[29],> 68.9 µM
same,GI50,[30],18.3 µM
same,TGI,[30],35.9 µM
same,GI50,[31],25.8 µM
same,TGI,[31],67.7 µM
same,GI50,[32],11.9 µM
same,TGI,[32],25.3 µM
same,GI50,[33],35.1 µM
same,TGI,[33],> 90.5 µM
same,GI50,[34],1.3 µM
same,TGI,[34],17.8 µM
same,GI50,[35],18.2 µM
same,TGI,[35],40.4 µM
same,GI50,[36],1.61 µM
same,TGI,[36],> 51.5 µM
same,GI50,[37],28.1 µM
same,TGI,[37],> 68.2 µM
same,GI50,[38],21.8 µM
same,TGI,[38],51.5 µM
same,GI50,[39],6.37 µM
same,TGI,[39],> 100 µM
same,GI50,[40],15.5 µM
same,TGI,[40],30.8 µM
same,GI50,[41],17.3 µM
same,TGI,[41],34.6 µM
same,GI50,[42],28 µM
same,TGI,[42],> 64.7 µM
same,GI50,[43],14.8 µM
same,TGI,[43],28.9 µM
same,GI50,[44],29 µM
same,TGI,[44],> 57.6 µM
same,GI50,[46],12.2 µM
same,TGI,[46],> 59.5 µM
same,GI50,[47],13 µM
same,TGI,[47],25.7 µM
same,GI50,[48],15.9 µM
same,TGI,[48],31.9 µM
same,GI50,[49],1.25 µM
same,TGI,[49],5.61 µM
same,GI50,[50],20.8 µM
same,TGI,[50],> 58.9 µM
same,GI50,[51],21.5 µM
same,TGI,[51],> 58.5 µM
same,GI50,[52],4.94 µM
same,TGI,[52],10.8 µM
same,GI50,[53],17.3 µM
same,TGI,[53],35.1 µM
same,GI50,[54],23 µM
same,TGI,[54],> 62.2 µM
same,GI50,[55],15.1 µM
same,TGI,[55],> 62.8 µM
